These results are taken from patent publication US9833466B2, “Treatment of leukemia with histone deacetylase inhibitors” (Acetylon Pharmaceuticals Inc., priority 2014, dated 2017).

Assay [1] has as its system bone marrow samples derived from AML patients. The assay is described as follows: Primary AML sample colony formation assay. In kind it is cell-based. The settings on record: Homo sapiens, 336 h, read-out: median IC50, colony formation. How it is done:
(A) 6 bone marrow samples derived from AML patients were cultured in methylcellulose-based medium and treated with increasing concentrations of Compound A, Compound J and azacitidine for 14 days when the colonies reach reasonable size. IC50 values for each drug are plotted. […] IC50 values were plotted for each patient sample.

A further assay deals with HL-60 cells. Nature of the assay: HL-60 cell viability, combination with azacitidine (cell titer glo, CalcuSyn CI). In kind it is cell-based. The settings on record: 72 hr, CI less than 1 = synergistic. Here is the method: HL-60 cells were treated with increasing doses of azacitidine with Compound E (FIG. 11A) or with Compound A (FIG. 11B) or with Compound H (FIG. 11C) or with Compound C (FIG. 11D), and cell viability was assessed at 72 hr by cell titer glo assay. The combination index (CI) and relative fraction affected (Fa) was determined at each dose level using CalcuSyn software. […] Significant enhancement of azacitidine activity is observed in combination with HDAC1/2 inhibition.

pIC50: −log10 of the molar value.

With `O=C(CCCCCCNC(=O)c1cnc(N(c2ccccc2)c2ccccc2)nc1)NO` [Compound A, 2-(diphenylamino)-N-(7-(hydroxyamino)-7-oxoheptyl)pyrimidine-5-carboxamide], the pIC50 in assay [1] was 5.01.

`Nc1ccc(-c2cccs2)cc1NC(=O)c1ccc2c(c1)cc(C1CC1)n2CCN1CCOCC1` [Compound E, N-(2-amino-5-(thiophen-2-yl)phenyl)-2-cyclopropyl-1-(2-morpholinoethyl)-1H-indole-5-carboxamide]: in the assay with HL-60 cells, the “synergistic interaction with azacitidine on cell viability (CI)” value was “strongest synergistic interaction”.

Broadly, the pIC50 is −log10 of the IC50, conventionally taken in molar units.
